These results are taken from patent publication US20230364069A1, “METHOD FOR TREATING NON-ALCOHOLIC STEATOHEPATITIS THROUGH CO-ADMINISTRATION OF CURCUMIN DERIVATIVE AND TGF-B RECEPTOR INHIBITOR” (UNIVERSITY INDUSTRY FOUNDATION, YONSEI UNIVERSITY WONJU …, priority 2021, published 2023).

Assay [1] deals with C57BL/6 mice in which steatohepatitis was induced with a methionine-choline deficient diet. As to the kind of experiment: Steatohepatitis animal model (MCD), curcumin 5-8 and high-concentration EW-7197 (40 mg/kg). It is filed as in vivo, mouse. The following applies: for fat accumulation in the liver tissues / fibrosis of liver tissues: MCD-fed mice, EW-7197 40 mg/kg, Western blotting, FIGS. 19 to 24; for fat accumulation in the liver tissues: H&E; for fibrosis of liver tissues: Picrosirius red, Masson's trichrome. As for the experimental part:
8-week-old male C57BL/6 mice weighing 20 to 25 g were purchased from Dae Han Bio Link Co., Ltd. (Chungbuk). Mice were acclimatized for one week under room temperature (25° C.±2° C.) in 60%±5% humidity and a 12-hour light/dark cycle. Mice were fed with a normal diet (Research Diets, RD) and allowed to drink water freely. Afterwards, the mice were randomly divided into five groups according to the fed diets or administered drugs, and the five groups were a group which was fed with a normal diet (Con), a group which was fed with a methionine-choline deficient diet (MCD), a group which was fed with a mixture of an MCD and curcumin 5-8 (1 g of curcumin 5-8 per 1 kg of the diet) (MCD+Cur5-8), a group which was fed with an MCD and to which EW-7197 was orally administered (MCD+EW), and a group which was fed with a mixture of an MCD and curcumin 5-8 and to which EW-7197 was orally administered together (MCD+EW+Cur5-8) (n=10).
EW-7197 was administered directly to the stomach by an oral administration method once every two days at 40 mg/kg. Body weights were measured every week during the experiment period, and liver tissues were harvested after 6 weeks and stored at −80° C. All experiments were performed with the approval of the Institutional Animal Care and Use Committee at Wonju College of Medicine of Yonsei University (YWC-200907-1).
In order to confirm the physiological changes in case of co-administration of a curcumin derivative (Cur5-8) and a TGF-β receptor inhibitor (EW-7197), the liver weights and the concentrations of TG, TC, AST, ALT, and γ-GT in serum were measured. In addition, hydroxyprolin expression was checked as a fibrosis marker in the liver tissues.
Specifically, the weights of the liver tissues harvested in Examples 2-1 and 2-2 were measured before storage.
In Examples 2-1 and 2-2, blood was collected after the experiment was completed, and concentrations of TG, TC, AST, ALT, and γ-GT in serum were measured. In order to measure blood glucose, triglyceride, cholesterol, and AST and ALT concentrations, ELISA kit of Asan Pharm. Co., Ltd. was purchased, and the measuring was performed. γ-GT in the liver was measured by using Mak089 of Sigma-Aldrich, and hydroxyproline was measured by using STA-675 ELISA kit of Cell Biolabs, Inc.
In addition, the hydroxyprolin expression was checked in the liver tissues harvested in Examples 2-1 and 2-2.
In order to check effects of inhibiting fat accumulation in liver tissues and fibrosis in liver tissues in case of co-administration of a curcumin derivative (Cur5-8) and a TGF-β receptor inhibitor (EW-7197), the liver tissues were stained.
The liver tissues harvested in Examples 2-1 and 2-2 were fixed with 10% formaldehyde, the formaldehyde was washed out with running water for more than 12 hours, and then washing was performed with 60% ethanol at a one-hour interval, with 70% ethanol at a one-hour interval, and with 100% ethanol at a one-hour interval. Then, the transparency process in xylene was performed three times for one hour each, and the infiltration process in paraffin was performed twice for one hour each. Then, the paraffin block was cut to a thickness of about […] to obtain slices. After deparaffinization, the slices were stained with hematoxylin and eosin (H&E staining), and blood vessels and lipid droplets in the liver tissues were checked. […]
In addition, H&E-stained liver slices were evaluated by using the NAFLD activity score (NAS) system. […]
(In general: Immunoblotting shows a protein as a band on a membrane.)

The test system of assay [2] is mouse hepatocyte cell lines (AML12). The assay can be described thus: Fat accumulation induced by oleic acid (BODIPY staining, Western blotting). The following applies: 500 μM oleic acid, 24 hours; for fat increased by oleic acid (BODIPY staining, adipophilin and SREBP1C Western blotting): 1 μM Cur5-8, 10 μM EW-7197, FIGS. 6 and 7. Format: cell-based. On the procedure: Fat accumulation was induced in hepatocytes with oleic acid, curcumin derivatives were administered, and fat synthesis and degradation were confirmed.
Specifically, oleic acid was dissolved in 0.2% bovine serum albumin (BSA) at a concentration of 500 μM, and the cells of Example 1-1 were cultured for 24 hours and treated with the resultant, and also treated with 1 μM curcumin (Cur), 1 μM curcumin 5-8 (Cur5-8), 1 μM curcumin 4-8 (Cur4-8), and 1 μM curcumin 5-14 (Cur5-14) for the same period of time. Thereafter, BODIPY-fatty acid solution (Sigma, 1 mg/mL of stock DMSO solution was diluted with PBS 1× to obtain a final concentration of 0.2 μg/mL) was administered to cells cultured in an incubator of 5% CO2 at 37° C. and cultured for one hour. After washing with PBS 1×, stained cells were observed.
In addition, the cells of Example 1-1 were treated with oleic acid in the same manner as described above and treated with 1 μM curcumin (Cur), 1 μM Curcumin 5-8 (Cur5-8), and 10 μM EW-7197 (EW), and then BODIPY-fatty acid staining was performed in the same manner as above. In addition, the cells were collected after treatment, and the protein expressions of adipophilin as a fat accumulation inducing factor and SREBP1C as a fat metabolism regulator in the collected cells were checked by Western blotting. To this end, Western blotting was performed by using the collected cells in the same method as described in <Example 1-3>. At this time, an anti-β-actin antibody, an anti-adipophilin antibody, and an anti-SREBP1C antibody were used as primary antibodies.
The mouse hepatocyte cell lines were treated with oleic acid by the method described in Example 1-4 and were simultaneously treated with each of curcumin (Cur) and curcumin derivatives (Cur5-8, Cur4-8, and Cur5-14) for 24 hours, and fat was stained by BODIPY staining method. […]

With `COc1cc(/C=C/C(=O)c2cccc(NC(=O)C(C)C)c2)ccc1O` [Cur5-8, N-{3-[(2E)-3-(4-hydroxy-3-methoxyphenyl)prop-2-enoyl]phenyl}-2-methylpropanamide], in assay [1] (MCD-fed C57BL/6 mice, 6 weeks, EW-7197 40 mg/kg oral once every two days, curcumin 5-8 1 g per 1 kg diet), the “AST (aspartate transaminase)” value was 119.9 ± 3.80 IU/L. Also, in assay [1], the “fat accumulation in the liver tissues” value was “reduced” and the “fibrosis of liver tissues” value is on record as “not improved”. In assay [2] (1 μM compound, FIGS. 4 and 5), the “fat increased by oleic acid (BODIPY staining)” value was “most effectively reduced fat”. Further, the “fat increased by oleic acid (BODIPY staining, adipophilin and SREBP1C Western blotting)” value in assay [2] is listed as “reduced the fat increased by oleic acid”.
On to `Cc1cccc(-c2[nH]c(CNc3ccccc3F)nc2-c2ccc3ncnn3c2)n1` [EW-7197, N-(2-fluorophenyl)-5-(6-methyl-2-pyridinyl)-4-[1,2,4]triazolo[1,5-a]pyridin-6-yl-1H-imidazole-2-methanamine], for which, in assay [1], the “fat accumulation in the liver tissues” value is “not inhibited” and the “fibrosis of liver tissues” value was “inhibited”. In addition, in assay [2], the “fat increased by oleic acid (BODIPY staining, adipophilin and SREBP1C Western blotting)” value is reported as “promotes the fat increase caused by oleic acid”.
